Assay results taken from US6638546B2 (Council of Scientific & Industrial Research, priority 2001, dated 2003).
Entries after “also recorded” stand apart in the source; their conditions may differ.

Tests used:
M2 receptors = target: T1, M2 receptors (Cavia porcellus, UniProt H0VRN8); experiment: Dose response curve of acetylcholine on isolated guinea pig atria; settings: for Inhibitory effect on rate and force of contraction of guinea pig atria (M2 block): dosage range used
T1 construct: The atria beat spontaneously; from tissue; host or cells: isolated guinea pig atria
T1 sequence (H0VRN8 1-466): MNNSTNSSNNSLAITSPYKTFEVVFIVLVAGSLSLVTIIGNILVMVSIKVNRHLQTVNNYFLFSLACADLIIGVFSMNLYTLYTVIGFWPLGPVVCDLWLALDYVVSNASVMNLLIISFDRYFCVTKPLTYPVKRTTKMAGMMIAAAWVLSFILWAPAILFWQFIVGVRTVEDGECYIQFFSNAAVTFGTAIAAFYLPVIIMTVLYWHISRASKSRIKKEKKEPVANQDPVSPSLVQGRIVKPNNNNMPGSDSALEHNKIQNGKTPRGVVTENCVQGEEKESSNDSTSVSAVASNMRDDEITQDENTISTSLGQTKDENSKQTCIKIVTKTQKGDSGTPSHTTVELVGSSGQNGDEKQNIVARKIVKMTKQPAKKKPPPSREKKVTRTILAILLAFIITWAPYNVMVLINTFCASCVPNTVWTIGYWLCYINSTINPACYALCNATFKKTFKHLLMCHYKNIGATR
Procedure: The in vitro experiments were performed on atria, ileum and bladder tissues of guinea pig. Atria were removed, and one end was tied to an oxygen tube and the other end was fixed to a Force transducer (Model T-305), which is connected to a physiograph (Biodevices Physiograph). The atria beat spontaneously, and after equilibration (30 minutes), resting tension was adjusted to the peak of the length tension curve followed by a re-equilibration period (30 minutes). Cumulative concentration response curves to acetylcholine were obtained before and after addition of increasing concentrations of the compound (doses said in Example 5). Responses were expressed as a percentage of the maximal inhibition of atrial rate induced by acetylcholine in absence of the antagonist (compound).

M1 receptors = target: T2, M1 receptors (Rattus norvegicus, UniProt P08482); experiment: Basal gastric acidity by pyloric ligation in rats; format: in vivo; settings: for % inhibition of gastric acidity: 15 min before pyloric ligation
T2 construct: from tissue; host or cells: living albino rats (stomach)
T2 sequence (P08482 1-460): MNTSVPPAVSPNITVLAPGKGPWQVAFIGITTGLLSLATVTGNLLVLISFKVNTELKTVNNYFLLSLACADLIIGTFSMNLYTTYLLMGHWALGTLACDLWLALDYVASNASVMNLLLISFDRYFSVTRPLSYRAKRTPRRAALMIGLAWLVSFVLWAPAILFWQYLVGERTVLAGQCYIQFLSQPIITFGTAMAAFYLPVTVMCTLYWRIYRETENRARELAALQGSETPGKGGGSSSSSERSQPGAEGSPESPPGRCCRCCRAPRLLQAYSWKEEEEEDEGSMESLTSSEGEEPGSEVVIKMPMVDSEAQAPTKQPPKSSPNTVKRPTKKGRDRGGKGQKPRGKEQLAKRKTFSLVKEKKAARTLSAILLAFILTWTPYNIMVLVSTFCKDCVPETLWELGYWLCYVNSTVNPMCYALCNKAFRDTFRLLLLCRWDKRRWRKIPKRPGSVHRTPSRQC
Procedure: These activities were tested upon rats. […] For comparative purposes, the doses of atropine used for testing gastric acidity were 0.01 milligram per kilogram of the body weight of rat injected subcutaneously (0.01 mg/kg s.c), 0.05 milligram per kilogram of the body weight of rat injected subcutaneously (0.05 mg/kg s.c), 0.10 milligram per kilogram of the body weight of rat injected subcutaneously (0.10 mg/kg s.c.).
The in vivo experiments for gastric acidity testing were performed by pyloric ligation on rats. Albino rats of either sex weighing 190-250 grams were randomly divided into groups of 6, with a group of 6 rats serving as control. All the rats were starved for 48 hours prior to the experiment. After the first 24 hours, they were given access to 8% sucrose in 0.2% sodium chloride for 8 hours. Water was permitted adlibitum except during the 8 hours of sucrose treatment and 2 hours previous to pyloric ligation.
Basal gastric acidity was determined by pyloric ligation under ether anaesthesia followed by gastric lavage with normal saline. […] Three hours later the animals were killed and the stomach was tied at the oesophageal junction and removed. The contents were collected by cutting along the greater curvature and the free acidity was determined by titration against 0.01 normal NaOH using Topfers reagent as indicator.

M3 receptors [1] = target: T3, M3 receptors (Cavia porcellus, UniProt H0W1Z3); experiment: Dose response curve of acetylcholine on guinea pig bladder detrusor strips; settings: 98, 196 and 392×10^−6 moles per ml of bath
T3 construct: from tissue; host or cells: guinea pig longitudinal ileal muscle; guinea pig bladder detrusor strips
T3 sequence (H0W1Z3 1-590): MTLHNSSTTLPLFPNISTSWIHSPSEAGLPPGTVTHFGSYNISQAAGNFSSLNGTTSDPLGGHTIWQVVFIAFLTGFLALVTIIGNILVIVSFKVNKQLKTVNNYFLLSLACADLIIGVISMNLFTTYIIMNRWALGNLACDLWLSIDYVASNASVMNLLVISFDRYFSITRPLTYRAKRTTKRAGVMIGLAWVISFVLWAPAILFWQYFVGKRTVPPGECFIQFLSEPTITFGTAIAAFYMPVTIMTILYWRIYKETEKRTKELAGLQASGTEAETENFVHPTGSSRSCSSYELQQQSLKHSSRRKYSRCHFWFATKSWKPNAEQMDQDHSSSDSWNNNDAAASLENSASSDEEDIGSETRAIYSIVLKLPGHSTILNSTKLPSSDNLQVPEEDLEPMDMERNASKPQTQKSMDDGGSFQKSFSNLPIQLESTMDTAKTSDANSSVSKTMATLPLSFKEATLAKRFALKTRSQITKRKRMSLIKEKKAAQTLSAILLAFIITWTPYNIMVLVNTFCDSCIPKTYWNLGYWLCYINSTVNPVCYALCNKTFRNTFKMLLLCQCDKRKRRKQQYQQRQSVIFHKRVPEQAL
Excerpt: (§1) The three doses prepared and applied were 98×10^−6 moles per milliliter of bath concentration; 196×10^−6 moles per milliliter of bath concentration and 392×10^−6 moles per milliliter of bath concentration. For comparative purposes, the three doses of atropine used were 35×10^−6 moles per milliliter of bath concentration; 86×10^−6 moles per milliliter of bath concentration and 173×10^−[…] moles per milliliter of bath concentration.
The longitudinal bladder detrusor strips were suspended under a resting tension (0.5 g) in aerated Tyrode physiological solution. Tension was measured with an isometric force transducer (FT 305), and responses were recorded on a Biodevices Physiograph. Antimuscarinic activity was determined from concentration response curves to acetylcholine in the absence or presence of increasing concentrations of the said compound. Contractile responses were expressed as a percentage of the maximum contraction elicited by acetylcholine in the absence of the said compound.

[2] = rat, in vivo; cited from earlier work
M3 receptors [3] = target: T3, M3 receptors; experiment: Dose response curve of acetylcholine on isolated guinea pig ileum; settings: 98, 196 and 392×10^−6 moles per ml of bath
Excerpt: as §1
The longitudinal ileal muscle was suspended in an organ bath in aerated Tyrode solution. […]. Doses of the compound were as given in Example 5.

Salmonella = Salmonella and mammalian microsome assays; cited from earlier work

| Compound | Inhibitory effect on rate and force of contraction of guinea pig atria (M2 block) (M2 receptors) | % inhibition of gastric acidity (M1 receptors; rat, 1 mg/kg s.c.) | % inhibition of gastric acidity (M1 receptors; rat, 3 mg/kg s.c., 3 mg/kg) | % inhibition of gastric acidity (M1 receptors; rat, 5 mg/kg s.c., 5 mg/kg) | Effect on basal gastric (free) acidity (M1 receptors; rat, 1, 3 & 5 mg/kg s.c.) | ED50 (M1 receptors; sc, rat, s.c., read-out: ED50 for inhibition of gastric acidity) | Antagonism of acetylcholine on bladder detrusor strips (M3 receptors [1]) | Oral toxicity [2] | Antagonism of acetylcholine contractions of ileum smooth muscle (M3 receptors [3]) | Mutagenic effect (Salmonella) | Inotropic or chronotropic effect on its own on guinea pig atrium (M2 receptors; 20, 40, 196 and 392×10^−6 moles per ml of bath) |
| --- | --- | --- | --- | --- | --- | --- | --- | --- | --- | --- | --- |
| CN1[C@@H]2CC[C@H]1C[C@@H](OC(=O)C(CO)c1ccccc1)C2 (stereo partly drawn) [Atropine, reference compound] | inhibitory effect on all the three receptors | – | – | – | – | – | – | – | – | – | – |
| CCCCCCCCCCCCCCCC(=O)OC [methyl palmitate] | had no such effect in the dosage range used; also recorded: does not block M2 receptors | 50.72% | 55% | 91.5% | decreased free acidity; also recorded: inhibited basal gastric acidity dose dependently | 2.74 mg/kg | antagonised the effect of acetylcholine in a dose-dependent and competitive manner | nontoxic | antagonised contractions of smooth muscle of the ileum | devoid of any mutagenic effect | did not produce any positive inotropic or chronotropic effect |
